# Experimental data from patent US10759813B2, “Neprilysin inhibitors” (THERAVANCE BIOPHARMA R&D IP, LLC, priority 2010, dated 2020).
# Biological target: human neprilysin (EC 3.4.24.11; NEP) (Homo sapiens (Human), UniProt P08473)
# Experiment: In vitro enzyme inhibition assay at human NEP (fluorogenic peptide substrate)
# Format: biochemical
# Settings: pKi values at human NEP, recombinant human NEP
# How it was run: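 pKi derived from apparent Ki fitted as v=v0/[1+(I/K′)] to Ex320/Em405 fluorescence. Compounds (pM to 10 μM) sat with recombinant human enzyme 30 min at 37 °C before 10 μM fluorogenic Mca peptide was added in HEPES pH 7.5 buffer with 10 μM ZnSO4; 20 min reaction, acetic acid quench.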
# human neprilysin (EC 3.4.24.11; NEP), sequence (P08473 52-750): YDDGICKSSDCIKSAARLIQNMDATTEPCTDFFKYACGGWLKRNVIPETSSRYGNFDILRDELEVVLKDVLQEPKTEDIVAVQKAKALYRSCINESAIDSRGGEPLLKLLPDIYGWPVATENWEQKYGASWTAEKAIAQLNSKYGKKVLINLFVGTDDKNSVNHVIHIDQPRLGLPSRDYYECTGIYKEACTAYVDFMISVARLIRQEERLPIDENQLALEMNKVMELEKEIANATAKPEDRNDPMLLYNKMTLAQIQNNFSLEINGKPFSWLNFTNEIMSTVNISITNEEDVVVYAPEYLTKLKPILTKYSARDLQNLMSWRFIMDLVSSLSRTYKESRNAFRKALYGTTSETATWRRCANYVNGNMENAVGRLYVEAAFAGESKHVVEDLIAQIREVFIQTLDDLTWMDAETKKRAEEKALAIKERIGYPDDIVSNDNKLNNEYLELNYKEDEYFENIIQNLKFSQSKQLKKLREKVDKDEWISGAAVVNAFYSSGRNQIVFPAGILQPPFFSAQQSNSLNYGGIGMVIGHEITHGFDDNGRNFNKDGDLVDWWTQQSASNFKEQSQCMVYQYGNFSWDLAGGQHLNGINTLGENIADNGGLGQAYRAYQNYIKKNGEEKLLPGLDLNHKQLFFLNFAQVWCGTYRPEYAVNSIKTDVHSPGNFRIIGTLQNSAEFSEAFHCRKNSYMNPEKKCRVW
pKi,Ki [µM],Compound
≥9.0,–,"O=C(N[C@H](Cc1ccc(-c2ccccc2)cc1)C[C@@H](O)C(=O)O)c1cc(C(=O)N2CCC2)n[nH]1 [Example 4-B, (2R,4R)-4-{[5-(Azetidine-1-carbonyl)-2H-pyrazole-3-carbonyl]amino}-5-biphenyl-4-yl-2-hydroxy-pentanoic acid]"
–,0.0126 to 0.1,"NC(=O)[C@H](O)C[C@@H](Cc1ccc(-c2ccccc2)cc1)NC(=O)c1cnc(O)nc1 [Example 9, 2-Hydroxypyrimidine-5-carboxylic acid ((1R,3R)-1-biphenyl-4-ylmethyl-3-carbamoyl-3-hydroxypropyl)amide]"
≥9.0,–,"O=C(N[C@H](Cc1ccc(-c2cccc(Cl)c2)cc1)C[C@@H](O)C(=O)O)c1cc(Cl)no1 [Example 18-9, (2R,4R)-5-(3′-Chloro-biphenyl-4-yl)-4-[(3-chloro-isoxazole-5-carbonyl)-amino]-2-hydroxy-pentanoic acid]"
≥9.0,–,"O=C(N[C@H](Cc1ccc(-c2ccccc2)cc1)C[C@@H](O)C(=O)O)c1cc(-c2ccccc2F)no1 [Example 12-9, (2R,4R)-5-Biphenyl-4-yl-4-{[3-(2-fluorophenyl)-isoxazole-5-carbonyl]-amino}-2-hydroxy-pentanoic acid]"
≥9.0,–,"O=C(N[C@H](Cc1ccc(-c2ccccc2)cc1)C[C@@H](O)C(=O)O)c1cc(-c2ccccc2Cl)on1 [Example 12-16, (2R,4R)-5-Biphenyl-4-yl-4-{[5-(2-chlorophenyl)-isoxazole-3-carbonyl]-amino}-2-hydroxy-pentanoic acid]"
–,0.0126 to 0.1,"Cc1nc(C(=O)N[C@H](Cc2ccc(-c3ccccc3)cc2)CC(O)C(=O)O)nn1-c1ccc(Cl)cc1 (stereo partly drawn) [Example 10-7, (R)-5-Biphenyl-4-yl-4-{[1-(4-chlorophenyl)-5-methyl-1H-[1,2,4]triazole-3-carbonyl]-amino}-2-hydroxypentanoic acid]"
≥9.0,–,"O=C(O)Cn1nc(C(=O)N[C@H](Cc2ccc(-c3ccccc3)cc2)C[C@@H](O)C(=O)O)cc1-c1ccccc1 [Example 15-35, (2R,4R)-5-Biphenyl-4-yl-4-[(1-carboxymethyl-5-phenyl-1H-pyrazole-3-carbonyl)-amino]-2-hydroxy-pentanoic acid]"
–,0.00126 to 0.01,"O=C(N[C@H](Cc1ccc(-c2ccccc2)cc1)CC(O)C(=O)O)c1cc(C(=O)O)n(Cc2c(F)ccc(Cl)c2F)n1 (stereo partly drawn) [Example 15-16, 5-((R)-1-Biphenyl-4-ylmethyl-3-carboxy-3-hydroxy-propylcarbamoyl)-2-(3-chloro-2,6-difluorobenzyl)-2H-pyrazole-3-carboxylic acid]"
–,0.00126 to 0.01,"COc1ccccc1C(=O)Nc1cc(C(=O)N[C@H](Cc2ccc(-c3ccccc3)cc2)CC(O)C(=O)O)[nH]n1 (stereo partly drawn) [Example 15-95, (R)-5-Biphenyl-4-yl-2-hydroxy-4-{[5-(2-methoxy-benzoylamino)-2H-pyrazole-3-carbonyl]-amino}-pentanoic acid]"
≥9.0,–,"Cc1cccc(-c2ccc(C[C@@H](C[C@H](O)C(=O)O)NC(=O)c3ccc4nnn(O)c4c3)cc2)c1 [Example 23-1, (2S,4S)-2-Hydroxy-4-[(3-hydroxy-3H-benzotriazole-5-carbonyl)-amino]-5-(3′-methyl-biphenyl-4-yl)-pentanoic acid]"
≥9.0,–,"O=C(N[C@@H](Cc1ccc(-c2cc(Cl)ccc2Cl)cc1)C[C@H](O)C(=O)O)c1ccc2nnn(O)c2c1 [Example 23-4, (2S,4S)-5-(2′,5′-Dichlorobiphenyl-4-yl)-2-hydroxy-4-[(3-hydroxy-3H-benzotriazole-5-carbonyl)-amino]-pentanoic acid]"
–,0.00126 to 0.01,"NC(=O)C1CCN(C(=O)c2cc(C(=O)N[C@H](Cc3ccc(-c4ccccc4)cc3)C[C@H](O)C(=O)O)[nH]n2)C1 (stereo partly drawn) [Example 15-44, (2S,4R)-5-Biphenyl-4-yl-4-{[5-(3-carbamoylpyrrolidine-1-carbonyl)-2H-pyrazole-3-carbonyl]-amino}-2-hydroxy-pentanoic acid]"
≥9.0,–,"O=C(N[C@H](Cc1ccc(-c2cccc(Cl)c2)cc1)C[C@@H](O)C(=O)O)c1cc(-c2cccnc2)[nH]n1 [Example 18-34, (2R,4R)-5-(3′-Chlorobiphenyl-4-yl)-2-hydroxy-4-[(5-pyridin-3-yl-1H-pyrazole-3-carbonyl)-amino]-pentanoic acid]"
≥9.0,–,"NC(=O)C1CCN(C(=O)c2cc(C(=O)N[C@H](Cc3ccc(-c4ccccc4)cc3)C[C@@H](O)C(=O)O)[nH]n2)C1 (stereo partly drawn) [Example 15-46, (2R,4R)-5-Biphenyl-4-yl-4-{[5-(3-carbamoylpyrrolidine-1-carbonyl)-2H-pyrazole-3-carbonyl]-amino}-2-hydroxy-pentanoic acid]"
–,0.00126 to 0.01,"O=C(N[C@H](Cc1ccc(-c2ccccc2)cc1)C[C@@H](O)C(=O)O)c1cc(-c2ccncc2)[nH]n1 [Example 15-20, (2R,4R)-5-Biphenyl-4-yl-2-hydroxy-4-[(5-pyridin-4-yl-1H-pyrazole-3-carbonyl)-amino]-pentanoic acid]"
–,0.00126 to 0.01,"O=C(NCCO)c1cc(C(=O)N[C@H](Cc2ccc(-c3ccccc3)cc2)CC(O)C(=O)O)[nH]n1 (stereo partly drawn) [Example 15-70, (R)-5-Biphenyl-4-yl-2-hydroxy-4-{[5-(2-hydroxy-ethylcarbamoyl)-2H-pyrazole-3-carbonyl]-amino}-pentanoic acid]"

pKi,Ki [µM],Compound
≥9.0,–,"O=C(N[C@H](Cc1ccc(-c2ccccc2)cc1)C[C@@H](O)C(=O)O)c1cc2n(n1)CCOc1ccccc1-2 [Example 16-1, (2R,4R)-5-Biphenyl-4-yl-4-[(4,5-dihydro-6-oxa-3,3a-diaza-benzo[e]azulene-2-carbonyl)-amino]-2-hydroxy-pentanoic acid]"
–,0.00126 to 0.01,"O=C(N[C@H](Cc1ccc(-c2ccccc2)cc1)CC(O)C(=O)O)c1cc(C(=O)O)n(Cc2ccc(F)c(Cl)c2)n1 (stereo partly drawn) [Example 15-14, 5-((R)-1-Biphenyl-4-ylmethyl-3-carboxy-3-hydroxy-propylcarbamoyl)-2-(3-chloro-4-fluorobenzyl)-2H-pyrazole-3-carboxylic acid]"
≥9.0,–,"O=C(N[C@H](Cc1ccc(-c2cccc(Cl)c2)cc1Cl)C[C@@H](O)C(=O)O)c1cnn[nH]1 [Example 21-1, (2R,4R)-5-(3,3′-Dichlorobiphenyl-4-yl)-2-hydroxy-4-[(3H-[1,2,3]triazole-4-carbonyl)-amino]-pentanoic acid]"
–,0.0126 to 0.1,"O=C(N[C@H](Cc1ccc(-c2ccccc2)cc1)C[C@@H](O)C(=O)O)c1cc2nn1CCOc1ccccc1-2 [Example 16-2, (2R,4R)-5-Biphenyl-4-yl-2-hydroxy-4-[(8-oxa-11,14-diaza-tricyclo[9.2.1.02,7]tetradeca-1(14),2,4,6,12-pentaene-12-carbonyl)-amino]-pentanoic acid]"
–,0.0126 to 0.1,"CC(C)(c1ccc(-c2ccccc2)cc1)[C@H](C[C@@H](O)C(=O)O)NC(=O)c1c[nH]nn1 [Example 25-1, (2R,4S)-5-Biphenyl-4-yl-2-hydroxy-5-methyl-4-[(1H-[1,2,3]triazole-4-carbonyl)-amino]-hexanoic acid]"
≥9.0,–,"O=C(N[C@H](Cc1ccc(-c2ccccc2)cc1)C[C@@H](O)C(=O)O)c1cc(-c2ccccc2)[nH]n1 [Example 15-33, (2R,4R)-5-Biphenyl-4-yl-2-hydroxy-4-[(5-phenyl-1H-pyrazole-3-carbonyl)-amino]-pentanoic acid]"
–,0.00126 to 0.01,"O=C(O)c1ccc(C(=O)N[C@H](Cc2ccc(-c3ccccc3)cc2)CC(O)C(=O)O)o1 (stereo partly drawn) [Example 12-1, 5-((R)-1-Biphenyl-4-ylmethyl-3-carboxy-3-hydroxypropylcarbamoyl)furan-2-carboxylic acid]"
≥9.0,–,"CC(C)Cc1cc(C(=O)N[C@H](Cc2ccc(-c3cccc(Cl)c3)cc2)C[C@@H](O)C(=O)O)on1 [Example 18-12, (2R,4R)-5-(3′-Chloro-biphenyl-4-yl)-2-hydroxy-4-[(3-isobutyl-isoxazole-5-carbonyl)-amino]-pentanoic acid]"
–,0.0126 to 0.1,"O=C(N[C@H](Cc1ccc(-c2ccccc2)cc1)CC(O)C(=O)O)c1cc(C(=O)O)n(Cc2ccc(Cl)c(SC(F)(F)F)c2)n1 (stereo partly drawn) [Example 15-6, 5-((R)-1-Biphenyl-4-ylmethyl-3-carboxy-3-hydroxypropylcarbamoyl)-2-(4-chloro-3-trifluoromethylsulfanyl-benzyl)-2H-pyrazole-3-carboxylic acid]"
≥9.0,–,"CCCc1cc(C(=O)N[C@H](Cc2ccc(-c3cccc(Cl)c3)cc2)C[C@@H](O)C(=O)O)on1 [Example 18-11, (2R,4R)-5-(3′-Chloro-biphenyl-4-yl)-2-hydroxy-4-[(3-propyl-isoxazole-5-carbonyl)-amino]-pentanoic acid]"
–,0.0126 to 0.1,"CC(C)c1cc(C(=O)N[C@H](Cc2ccc(-c3ccccc3)cc2)CC(O)C(=O)O)[nH]n1 (stereo partly drawn) [Example 15-73, (R)-5-Biphenyl-4-yl-2-hydroxy-4-[(5-isopropyl-2H-pyrazole-3-carbonyl)amino]-pentanoic acid]"
–,0.00126 to 0.01,"O=C(N[C@H](Cc1ccc(-c2ccccc2)cc1)CC(O)C(=O)O)c1cnc2nn[nH]c2c1 (stereo partly drawn) [Example 11-11, (R)-5-Biphenyl-4-yl-2-hydroxy-4-[(1H-[1,2,3]triazolo[4,5-b]pyridine-6-carbonyl)-amino]-pentanoic acid]"
≥9.0,–,"O=C(N[C@H](Cc1ccc(-c2cc(Cl)ccc2F)cc1)C[C@@H](O)C(=O)O)c1cn(O)nn1 [Example 19-6, (2R,4R)-5-(5′-Chloro-2′-fluorobiphenyl-4-yl)-2-hydroxy-4[(1-hydroxy-1H-[1,2,3]triazole-4-carbonyl)-amino]-pentanoic acid]"
≥9.0,–,"O=C(N[C@H](Cc1ccc(-c2ccccc2)cc1)C[C@@H](O)C(=O)O)c1cc(C(=O)O)[nH]n1 [Example 2-D, 5-((1R,3R)-1-Biphenyl-4-ylmethyl-3-carboxy-3-hydroxypropylcarbamoyl)-2H-pyrazole-3-carboxylic Acid]"
≥9.0,–,"O=C(N[C@H](Cc1ccc(-c2ccccc2)cc1)C[C@@H](O)C(=O)O)c1cc(-c2ccccc2Cl)no1 [Example 12-6, (2R,4R)-5-Biphenyl-4-yl-4-{[3-(2-chlorophenyl)-isoxazole-5-carbonyl]-amino}-2-hydroxy-pentanoic acid]"
